In patent US20240166598A1, “COMPOUNDS, COMPOSITIONS, AND METHODS OF USING THE SAME” (priority 2021, published 2024):
Where two headings read alike, the source gives them in different places.

Tests used:
[1] = target: T1, SARS CoV-2 PLpro (Severe acute respiratory syndrome coronavirus 2 (2019-nCoV) (SARS-CoV-2), UniProt P0DTD1); assay: biochemical; format: biochemical; details: for IC50: read-out: Enzymatic assay IC50
[2] = target: T1, SARS CoV-2 PLpro; assay: cell-based; details: read-out: FlipGFP-PLpro assay EC50
[3] = target: T1, SARS CoV-2 PLpro; assay: biochemical; details: Table 8; read-out: FRET Enzymatic assay IC50
[4] = target: T1, SARS CoV-2 PLpro; assay: biochemical; format: binding; details: for Kd: read-out: SPR binding assay KD
[5] = in vitro; details: human, microsomes
[6] = in vitro; details: human, Caco-2

Cc1ccc([N+](=O)[O-])cc1C(=O)NC(C)c1c[nH]c2ccccc12 (centres unmarked)
IC50 ([1]; Table 7): > 100 µM

Cc1ccc(NC2CNC2)cc1C(=O)N[C@H](C)c1cccc(-c2ccc(CN[C@H]3CC[C@@H](OC(=O)/C=C/c4cccnc4)C3)s2)c1
IC50 ([1]; Table 7): 0.387 µM

Cc1ccc(NC2CNC2)cc1C(=O)N[C@H](C)c1cccc(-c2ccc(CO)s2)c1
IC50 ([1]; Table 7): 1.57 µM

Cc1ccc(NC2CNC2)cc1C(=O)N[C@H](C)c1cccc(-c2ncc(CN3CCCC3)s2)c1
IC50 ([1]; Table 7): 3.14 µM

CCOC(=O)[C@@H]1CC[C@H](NCc2cnc(-c3cccc([C@@H](C)NC(=O)c4cc(NC5CNC5)ccc4C)c3)s2)C1
IC50 ([1]; Table 7): 0.496 µM

Cc1ccc(NC2CNC2)cc1C(=O)N[C@H](C)c1cccc(-c2ccc(CNC(=O)C(F)(F)C(F)(F)F)s2)c1
IC50 ([1]; Table 7): 0.442 µM

Cc1ccc(OC2CNC2)cc1C(=O)N[C@H](C)c1cccc(-c2ccc(CN[C@H]3CC[C@@H](C(=O)OC[C@H]4O[C@@H](n5ccc(NO)nc5=O)[C@H](O)[C@@H]4O)C3)s2)c1
EC50 [2]: > 20 µM
IC50 [3]: 0.75 ± 0.05 µM

Cc1ccc(OC2CNC2)cc1C(=O)N[C@H](C)c1cccc(-c2ccc(CN[C@H]3CC[C@@H](C(=O)NCCOCCOCCOCCOCCNc4cccc5c4C(=O)N(C4CCC(=O)NC4=O)C5=O)C3)s2)c1 (some centres unmarked)
EC50 [2]: > 20 µM
IC50 [3]: 1.67 ± 0.33 µM

Cc1ccc(OC2CNC2)cc1C(=O)N[C@H](C)c1cccc(-c2ccc(CN3CCCC3)o2)c1
EC50 [2]: > 60 µM
IC50 [3]: 4.58 ± 0.92 µM

Cc1ccc(OC2CNC2)cc1C(=O)N[C@H](C)c1cccc(-c2ccc(CN[C@H]3CC[C@@H](O)C3)o2)c1
EC50 [2]: > 60 µM
IC50 [3]: 3.02 ± 0.58 µM

Cc1ccc(NC2CNC2)cc1C(=O)N[C@H](C)c1cccc(-c2cccs2)c1 (single isomer, unassigned) [ZN-3-80]
Ave ka ([4]; SPR association rate, average of replicates): 351000 M⁻¹ s⁻¹
ka1 ([4]; SPR association rate, replicate 1): 291000 M⁻¹ s⁻¹
ka2 ([4]; SPR association rate, replicate 2): 334000 M⁻¹ s⁻¹
ka3 ([4]; SPR association rate, replicate 3): 303000 M⁻¹ s⁻¹
ka4 ([4]; SPR association rate, replicate 4): 477000 M⁻¹ s⁻¹
Ave kd ([4]; SPR dissociation rate, average of replicates): 0.327 s⁻¹
kd1 ([4]; SPR dissociation rate, replicate 1): 0.318 s⁻¹
kd2 ([4]; SPR dissociation rate, replicate 2): 0.369 s⁻¹
kd3 ([4]; SPR dissociation rate, replicate 3): 0.290 s⁻¹
kd4 ([4]; SPR dissociation rate, replicate 4): 0.332 s⁻¹
half-life [5]: 4.1 h
In vitro CIint (human): 5.64 μL/min/mg protein
Scale-up CIint (human): 7.07 mL/min/kg
stability in human liver microsome stability assays, in words (microsomes): more stable than GRL0617

Cc1ccc(N)cc1CNC(C)c1cccc2ccccc12 (centres unmarked) [DY2-64]
PLpro inhibition potency, in words (SAR) [1]: sharp decline in potency

Cc1ccc(N)cc1S(=O)(=O)NC(C)c1cccc2ccccc12 (centres unmarked) [DY3-63]
PLpro inhibition potency, in words (SAR) [1]: sharp decline in potency

C[C@H]1O[C@@H](O[C@H]2[C@@H](O)C[C@H](O[C@H]3[C@@H](O)C[C@H](O[C@H]4CC[C@@]5(C)[C@H](CC[C@@H]6[C@@H]5C[C@@H](O)[C@]5(C)[C@@H](C7=CC(=O)OC7)CC[C@]65O)C4)O[C@@H]3C)O[C@@H]2C)C[C@H](O)[C@@H]1O [Digoxin]
Papp A→B [6]: 0.4 ×10⁻⁶ cm/s
Papp B→A [6]: 10.4 ×10⁻⁶ cm/s

Cc1ccc(NC2CN(C(=O)OC(C)(C)C)C2)cc1C(=O)N[C@H](C)c1cccc2ccccc12 [Example 1, Tert-butyl (R)-3-((4-methyl-3-((1-(naphthalen-1-yl)ethyl)carbamoyl)phenyl)amino)azetidine-1-carboxylate]
Kd [4]: 16 µM
IC50 [1]: 6.1 µM

Cc1ccc(NC2CCN(C(=O)OC(C)(C)C)CC2)cc1C(=O)N[C@H](C)c1cccc2ccccc12 [Example 2, Tert-butyl (R)-4-((4-methyl-3-((1-(naphthalen-1-yl)ethyl)carbamoyl)phenyl)amino)piperidine-1-carboxylate]
Kd [4]: 4.7 µM
IC50 [1]: 1.1 µM

Cc1ccc(NC(=O)C2CN(C(=O)OC(C)(C)C)C2)cc1C(=O)N[C@H](C)c1cccc2ccccc12 [Example 3, Tert-butyl (R)-3-((4-methyl-3-((1-(naphthalen-1-yl)ethyl)carbamoyl)phenyl)carbamoyl)azetidine-1-carboxylate]
Kd [4]: 32.6 µM
IC50 [1]: 5.5 µM

Cc1ccc(NC(=O)C2CCN(C(=O)OC(C)(C)C)CC2)cc1C(=O)N[C@H](C)c1cccc2ccccc12 [Example 4, Tert-butyl (R)-4-((4-methyl-3-((1-(naphthalen-1-yl)ethyl)carbamoyl)phenyl)carbamoyl)piperidine-1-carboxylate]
Kd [4]: 31.1 µM
IC50 [1]: 6 µM

Cc1ccc(NC2CNC2)cc1C(=O)N[C@H](C)c1cccc2ccccc12 [Example 5, (R)-5-(azetidin-3-ylamino)-2-methyl-N-(1-(naphthalen-1-yl)ethyl)benzamide]
Kd ([4]; Table 7): 0.81 µM
